From PMC12005229, “Final results from the phase Ia/Ib study of the novel bromodomain and extra-terminal domain inhibitor, BI 894999, in patients with advanced solid tumors or diffuse large B-cell lymphoma” (ESMO Open, 2025)
Where “and” joins values, the source holds several entries; their conditions need not be identical. Identical values can stand only once. Entries after “also recorded” stand apart in the source; their conditions may differ.

How the values were obtained:
[1] = tested on: HEXIM1, HIST2H2BF, and CCR2; test: NanoString gene expression in blood (target engagement); format: in vivo, human
Experimental: The evaluation of biomarkers to identify patient subgroups with differential prognosis or response to treatment was exploratory, with no formal endpoints defined. Blood samples were assessed using an in-house-designed NanoString panel (NanoString, Seattle, WA) measuring gene expression levels of HEXIM1, HIST2H2BF, and CCR2 over all time points, and postdose expression levels of HEXIM1, HIST2H2BF, and CCR2 on days 14 and 15. HEXIM1 is modulated by BET family proteins and is considered a robust pharmacodynamic marker of BET inhibition,[30] whereas HIST2H2BF and CCR2 are involved in cancer pathways.[31]^,[32]
Total RNA was extracted from whole blood using PAXgene Blood RNA kit (Qiagen, Hilden, Germany) following the manufacturer’s instructions. Total RNA was quantified by direct absorbance measurement at 260 nm using a NanoDrop Spectrophotometer (Thermo Fisher, Waltham, MA). Quality check was carried out by additional measurement of absorbance at 280 nm and calculation of the absorbance ratio OD260/OD280.
mRNA expression was assessed using a custom nCounter® (NanoString, Seattle, WA) codeset generated for the genes of interest plus housekeeping genes. Probes were hybridized to 150 ng of total RNA for 19 h at 65°C and applied to the nCounter® Preparation Station for automated removal of excess probe and immobilization of probe–transcript complexes on a streptavidin-coated cartridge. Data were collected using the nCounter® Digital Analyzer by counting the individual barcodes. Data were analyzed using an in-house analysis pipeline that follows the latest NanoString Technologies standards for the analysis of nCounter® data. The analysis pipeline includes quality checking of the raw data using the NAnostring quality Control dasHbOard (NACHO), a comprehensive method to optimize the quality control of nCounter® data.[33] The housekeeping genes ACTB, GAPDH, HPRT1, MGAT1, and TMED9 were used for normalization.

patients with DLBCL = test: phase Ia DLBCL extension: DLTs, MTD, adverse events, exposure; format: in vivo; conditions: for DLT grade ≥3 / DLT / DLT duration / DLT grade / DLT outcome: individual patient events
Excerpt: The extension to the phase Ia dose escalation evaluated schedules B and C for patients with DLBCL.

[2] = DLBCL phase Ia extension n = 18
[3] = DLBCL, on-treatment period, schedule B 2.0 mg
[4] = DLBCL, on-treatment period, schedule C 4.0/2.0 mg
[5] = DLBCL, on-treatment period, schedule C 5.0/2.5 mg
[6] = DLBCL, schedule B 1.5 mg, MTD evaluation period
[7] = DLBCL, schedule B 2.0 mg, MTD evaluation period
[8] = DLBCL, schedule B 2.5 mg, MTD evaluation period
[9] = phase Ia DLBCL, MTD evaluation period

CNc1nc(-c2nc3ccc(N4CCN(C)CC4)cc3n2Cc2ccccc2)cn2c(C)nnc12 [BI 894999]
target engagement (≥2 of 3 genes with twofold or greater change) ([1]; phase Ia DLBCL patient blood samples): target engagement was seen at all dose levels | HEXIM1 induction, median fold change from baseline ([1]; phase Ib, NUT carcinoma, blood): 1.93 | target engagement (≥2 of 3 genes with twofold or greater change) ([1]; phase Ib, blood samples from the various solid tumor entities): all showed target engagement | AEs leading to death (patients with DLBCL; [2]): 1 (5.6) n (%) | AEs leading to discontinuation of trial drug (patients with DLBCL; [2]): 4 (22.2) n (%) | AEs leading to dose reduction (patients with DLBCL; [2]): 3 (16.7) n (%) | Any AE (patients with DLBCL; [2]): 18 (100) n (%) | DLT in on-treatment period (patients with DLBCL; [2]): 8 (44.4) n (%) | Treatment-related AEs (patients with DLBCL; [2]): 15 (83.3) n (%) | Treatment-related serious AEs (patients with DLBCL; [2]): 2 (11.1) n (%) | Anemia, treatment-related AE, any grade (patients with DLBCL; DLBCL phase Ia n = 18): 5 (27.8) n (%) | Anemia, treatment-related AE, grade ≥3 (patients with DLBCL; DLBCL phase Ia n = 18): 5 (27.8) n (%) | Asthenia, treatment-related AE, any grade (patients with DLBCL; DLBCL phase Ia n = 18): 2 (11.1) n (%) | Asthenia, treatment-related AE, grade ≥3 (patients with DLBCL; DLBCL phase Ia n = 18): 0 n (%) | Decreased appetite, treatment-related AE, any grade (patients with DLBCL; DLBCL phase Ia n = 18): 4 (22.2) n (%) | Decreased appetite, treatment-related AE, grade ≥3 (patients with DLBCL; DLBCL phase Ia n = 18): 0 n (%) | Decreased platelet count, treatment-related AE, any grade (patients with DLBCL; DLBCL phase Ia n = 18): 2 (11.1) n (%) | Decreased platelet count, treatment-related AE, grade ≥3 (patients with DLBCL; DLBCL phase Ia n = 18): 2 (11.1) n (%) | Diarrhea, treatment-related AE, any grade (patients with DLBCL; DLBCL phase Ia n = 18): 9 (50.0) n (%) | Diarrhea, treatment-related AE, grade ≥3 (patients with DLBCL; DLBCL phase Ia n = 18): 0 n (%) | Dysgeusia, treatment-related AE, any grade (patients with DLBCL; DLBCL phase Ia n = 18): 2 (11.1) n (%) | Dysgeusia, treatment-related AE, grade ≥3 (patients with DLBCL; DLBCL phase Ia n = 18): 0 n (%) | Epistaxis, treatment-related AE, any grade (patients with DLBCL; DLBCL phase Ia n = 18): 2 (11.1) n (%) | Epistaxis, treatment-related AE, grade ≥3 (patients with DLBCL; DLBCL phase Ia n = 18): 0 n (%) | Fatigue, treatment-related AE, any grade (patients with DLBCL; DLBCL phase Ia n = 18): 4 (22.2) n (%) | Fatigue, treatment-related AE, grade ≥3 (patients with DLBCL; DLBCL phase Ia n = 18): 0 n (%) | Hematoma, treatment-related AE, any grade (patients with DLBCL; DLBCL phase Ia n = 18): 2 (11.1) n (%) | Hematoma, treatment-related AE, grade ≥3 (patients with DLBCL; DLBCL phase Ia n = 18): 0 n (%) | Muscle spasms, treatment-related AE, any grade (patients with DLBCL; DLBCL phase Ia n = 18): 2 (11.1) n (%) | Muscle spasms, treatment-related AE, grade ≥3 (patients with DLBCL; DLBCL phase Ia n = 18): 0 n (%) | Nausea, treatment-related AE, any grade (patients with DLBCL; DLBCL phase Ia n = 18): 5 (27.8) n (%) | Nausea, treatment-related AE, grade ≥3 (patients with DLBCL; DLBCL phase Ia n = 18): 0 n (%) | Neutropenia, treatment-related AE, any grade (patients with DLBCL; DLBCL phase Ia n = 18): 4 (22.2) n (%) | Neutropenia, treatment-related AE, grade ≥3 (patients with DLBCL; DLBCL phase Ia n = 18): 3 (16.7) n (%) | Thrombocytopenia, treatment-related AE, any grade (patients with DLBCL; DLBCL phase Ia n = 18): 11 (61.1) n (%) | Thrombocytopenia, treatment-related AE, grade ≥3 (patients with DLBCL; DLBCL phase Ia n = 18): 8 (44.4) n (%) | Troponin increased, treatment-related AE, any grade (patients with DLBCL; DLBCL phase Ia n = 18): 2 (11.1) n (%) | Troponin increased, treatment-related AE, grade ≥3 (patients with DLBCL; DLBCL phase Ia n = 18): 1 (5.6) n (%) | DLT grade ≥3 (patients with DLBCL; DLBCL, on-treatment period, schedule B 1.5 mg): Increased troponin | DLT duration, melena (patients with DLBCL; [3]): 7 days | DLT grade, melena (patients with DLBCL; [3]): 3 | DLT grade ≥3 (patients with DLBCL; [3]): Thrombocytopenia; also recorded: Melena | DLT grade ≥3 (patients with DLBCL; DLBCL, on-treatment period, schedule B 2.5 mg): Thrombocytopenia; also recorded: Sepsis; also recorded: Febrile neutropenia | DLT grade, decreased platelet count (patients with DLBCL; [4]): 4 | DLT grade ≥3 (patients with DLBCL; [4]): Decreased platelet | DLT duration, thrombocytopenia (patients with DLBCL; [5]): 8 days | DLT grade, neutropenia (patients with DLBCL; [5]): 4 | DLT grade, thrombocytopenia (patients with DLBCL; [5]): 4 | DLT grade ≥3 (patients with DLBCL; [5]): Neutropenia; also recorded: Thrombocytopenia | DLT (patients with DLBCL; [6]): Increased troponin | DLT duration (patients with DLBCL; [6]): 5 days | DLT grade (patients with DLBCL; [6]): 3 | DLT outcome (patients with DLBCL; [6]): Recovered | DLT (patients with DLBCL; [7]): Thrombocytopenia | DLT duration (patients with DLBCL; [7]): 11 days | DLT grade (patients with DLBCL; [7]): 4 | DLT outcome (patients with DLBCL; [7]): Not recovered | DLT (patients with DLBCL; [8]): Thrombocytopenia; also recorded: Sepsis; also recorded: Febrile neutropenia | DLT duration (patients with DLBCL; [8]): 5 days and 6 days and 7 days and 2 days | DLT grade (patients with DLBCL; [8]): 4 and 3 | DLT outcome (patients with DLBCL; [8]): Not recovered; also recorded: Recovered | maximum tolerated dose (MTD) (patients with DLBCL; DLBCL, schedule B (days 1-14/21)): 1.5 mg | maximum tolerated dose (MTD) (patients with DLBCL; DLBCL, schedule C): not declared | anemia, grade ≥3 treatment-related AE (patients with DLBCL; phase Ia DLBCL): 27.8% | anemia, treatment-related AE of any grade (patients with DLBCL; phase Ia DLBCL): 27.8% | decreased platelet count, grade ≥3 treatment-related AE (patients with DLBCL; phase Ia DLBCL): 11.1% | decreased platelet count, treatment-related AE of any grade (patients with DLBCL; phase Ia DLBCL): 11.1% | diarrhea, treatment-related AE of any grade (patients with DLBCL; phase Ia DLBCL): 50.0% | discontinuation because of DLT (patients with DLBCL; phase Ia DLBCL): 11.1% | discontinuation because of other AEs (patients with DLBCL; phase Ia DLBCL): 5.6% | discontinuation because of progressive disease (patients with DLBCL; phase Ia DLBCL): 83.3% | dose discontinuations due to AEs (patients with DLBCL; phase Ia DLBCL): 22.2% | dose reductions due to AEs (patients with DLBCL; phase Ia DLBCL): 16.7% | fatigue, treatment-related AE of any grade (patients with DLBCL; phase Ia DLBCL): 22.2% | increased troponin, treatment-related AE of any grade (patients with DLBCL; phase Ia DLBCL): 11.1% | lymph node pain leading to dose discontinuation (patients with DLBCL; phase Ia DLBCL): 5.6% | median time to first dose reduction (patients with DLBCL; phase Ia DLBCL): 36.0 days | nausea, treatment-related AE of any grade (patients with DLBCL; phase Ia DLBCL): 27.8% | neutropenia leading to dose discontinuation (patients with DLBCL; phase Ia DLBCL): 5.6% | neutropenia, grade ≥3 treatment-related AE (patients with DLBCL; phase Ia DLBCL): 16.7% | neutropenia, treatment-related AE of any grade (patients with DLBCL; phase Ia DLBCL): 22.2% | patients who underwent dose reductions (patients with DLBCL; phase Ia DLBCL): 16.7% | patients with AEs of any grade (patients with DLBCL; phase Ia DLBCL): 100% | patients with treatment-related AEs (patients with DLBCL; phase Ia DLBCL): 83.3% | thrombocytopenia leading to dose discontinuation (patients with DLBCL; phase Ia DLBCL): 11.1% | thrombocytopenia, grade ≥3 treatment-related AE (patients with DLBCL; phase Ia DLBCL): 44.4% | thrombocytopenia, treatment-related AE of any grade (patients with DLBCL; phase Ia DLBCL): 61.1% | DLT grade 3 febrile neutropenia (patients with DLBCL; [9]): 7.7% | DLT grade 3 increased troponin (patients with DLBCL; [9]): 7.7% | DLT grade 4 sepsis (patients with DLBCL; [9]): 7.7% | DLT grade 4 thrombocytopenia (patients with DLBCL; [9]): 23.1% | assessable patients with DLTs (patients with DLBCL; [9]): 4/17 | total patients with DLTs during the on-treatment period (patients with DLBCL; phase Ia DLBCL, schedule B): 5 n | patients with DLTs (patients with DLBCL; phase Ia DLBCL, schedule B 1.5 mg, MTD evaluation period): 1 n | patients with DLTs (patients with DLBCL; phase Ia DLBCL, schedule B 2.0 mg, MTD evaluation period): 1 n | patients with DLTs (patients with DLBCL; phase Ia DLBCL, schedule B 2.5 mg, MTD evaluation period): 2 n | patients with DLTs (patients with DLBCL; phase Ia DLBCL, schedule B (n = 13), MTD evaluation period): 30.8% | total patients with DLTs during the on-treatment period (patients with DLBCL; phase Ia DLBCL, schedule C): 3 n | patients with DLTs (patients with DLBCL; phase Ia DLBCL, schedule C, MTD period): No patients receiving schedule C experienced DLTs; also recorded: a No DLBCL patients on schedule C experienced DLTs on BI 894999
